This is an account of results in PMC12367851, “In vitro CB1 receptor activity of halogenated indazole synthetic cannabinoid receptor agonists” (Archives of Toxicology, 2025).

pEC50: −log10 of the molar value. Like-named read-outs stand apart in the source and are kept apart here.

The target of assay [1] is CB1 receptor. The arrangement: method as in Deventer et al. [2023b]. The settings on record: AequoScreen / Ca2+ release assay; ref Deventer et al. [2023b]; read-out: EC50; cited from earlier work.
The target of assay [2] is CB1 receptor. Particulars: β-arrestin 2 recruitment, read-out: EC50, cited from earlier work.
For another assay, the target named is human CB1 receptor (Homo sapiens, UniProt P21554). Nature of the assay: AequoScreen CB1 assay (intracellular Ca2+ release, CHO-K1 cells, apoaequorin/Gα16). Particulars: for Emax: CHO-K1, read-out: Efficacy (% of JWH-018) Emax; for Efficacy (Emax) Mean Diff: Brown-Forsythe and Welch ANOVA; for fold more potent than ADB-BUTINACA: EC50 ratio vs non-halogenated analog ADB-BUTINACA

Setting [3] is: Compound 1 vs Compound 2 = ADB-5’Cl-BUTINACA
Setting [4] is: Compound 1 vs Compound 2 = ADB-BUTINACA

Chain of human CB1 receptor (P21554 whole entry): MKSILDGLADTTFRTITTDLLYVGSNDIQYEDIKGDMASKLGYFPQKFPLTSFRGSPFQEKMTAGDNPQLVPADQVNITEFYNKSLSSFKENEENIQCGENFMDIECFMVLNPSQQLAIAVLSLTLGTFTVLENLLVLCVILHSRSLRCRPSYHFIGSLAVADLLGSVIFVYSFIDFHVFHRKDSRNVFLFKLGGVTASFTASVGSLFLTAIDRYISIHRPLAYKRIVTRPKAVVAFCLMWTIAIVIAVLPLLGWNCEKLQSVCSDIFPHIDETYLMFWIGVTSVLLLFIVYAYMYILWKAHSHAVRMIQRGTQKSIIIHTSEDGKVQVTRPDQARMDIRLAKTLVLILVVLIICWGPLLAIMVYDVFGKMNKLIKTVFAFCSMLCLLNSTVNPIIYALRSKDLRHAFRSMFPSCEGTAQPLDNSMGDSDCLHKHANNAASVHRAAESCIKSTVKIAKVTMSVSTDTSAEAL

The term pEC50 denotes the negative decadic logarithm of the EC50, by convention in mol/L. What is called Emax is the maximal effect, on the per cent scale that the assay sets. As for `CCCCn1nc(C(=O)NC(C(N)=O)C(C)(C)C)c2cc(Br)ccc21` (stereo not shown) [ADB-5′Br-BUTINACA, N-[1-amino-3,3-dimethyl-1-oxobutan-2-yl]−5-bromo-1-butyl-1H-indazole-3-carboxamide], the pEC50 on CB1 receptor [1] was 7.90; on CB1 receptor [2] (ref Deventer et al. [2023b]) it was 7.09; on human CB1 receptor, 7.74. Further, the maximal effect (Emax) at human CB1 receptor was 110%. Also, the “Efficacy (Emax) Mean Diff” value at human CB1 receptor (Compound 1 vs Compound 2 = ADB-4en-5’Br-PINACA) is -1.26; at human CB1 receptor (Compound 1 vs Compound 2 = ADB-5’Br-FUBINACA), -2.30; on human CB1 receptor (Compound 1 vs Compound 2 = ADB-5’Br-PINACA), 1.84; on human CB1 receptor (setting [3]), -2.84; on human CB1 receptor (Compound 1 vs Compound 2 = ADB-5’F-BUTINACA) it was -3.19; at human CB1 receptor (setting [4]) it was -15.66. The “Efficacy (Emax) Mean Diff” value on human CB1 receptor (Compound 1 vs Compound 2 = MDMB-5’Br-BUTINACA) was -3.82. In addition, the “fold more potent than ADB-BUTINACA” value on human CB1 receptor is given as 1.2 fold. For the same compound, the “fold difference of each other (potency)” value on human CB1 receptor (brominated SCRAs with pent-4-enyl, butyl and pentyl tails) is listed as at most 1.4 fold.
For the compound `CCCCn1nc(C(=O)NC(C(N)=O)C(C)(C)C)c2cc(F)ccc21` (stereo not shown) [ADB-5′F-BUTINACA], the negative-log EC50 (pEC50) on CB1 receptor [1] is 7.74; at CB1 receptor [2] (ref Deventer et al. [2023b]), 7.54; at human CB1 receptor it was 7.84. For the same compound, the Emax at human CB1 receptor amounted to 113%. Besides, the “Efficacy (Emax) Mean Diff” value on human CB1 receptor (setting [3]) was 0.36; on human CB1 receptor (setting [4]), -12.47; at human CB1 receptor (Compound 1 vs Compound 2 = MDMB-5’F-BUTINACA) it was 1.89. In addition, the “fold more potent than ADB-BUTINACA” value on human CB1 receptor was 1.5 fold.
With `CCCCn1nc(C(=O)NC(C(N)=O)C(C)(C)C)c2ccccc21` (stereo not shown) [ADB-BUTINACA, reference compound], the negative-log EC50 (pEC50) at CB1 receptor [1] is 7.94; at CB1 receptor [2] (ref Sparkes et al. [2022]) it was 8.11; at human CB1 receptor, 7.67. Besides, the Emax on human CB1 receptor turned out to be 126%.
